Source: patent publication US20140227238A1, “PEPTIDES HAVING PROTECTIVE EFFECT TOWARDS THE INFLAMMATORY ACTIVITY OF PEPTIDE 31-43 OF A-GLIADIN IN CELIAC DISEASE” (CRA-CONSIGLIO PER LA RICERCA E LA, priority 2011, published 2014)
Entries after “also recorded” stand apart in the source; their conditions may differ.

What was measured:
[1] = tested on: biopsies from celiac subjects; test: Organ culture of celiac duodenal mucosa with p31-43, immunolocalization of Py99 and phospho-p42/p44; assay type: cell-based, human
Description: (§1) Duodenal mucosa samples have been treated in vitro for 3 and 24 hours using medium, gliadin PT digest (500 μg/mL), p31-43 (20 μg/ml), pRPQ (10 μg/ml). P7mer and pTPO (10 μg/ml) have been used in all the experiments as control peptides.
(§2) 4 μm thick sections of frozen biopsy samples from celiac patients have been fixed in acetone for 10 minutes. Then sections have been incubated for 2 hours at room temp. with following antibodies: anti-phospho-tyrosine PY99 mAb (1:80, IgG2b; Saint Cruz Biotechnology, Saint Cruz, Calif.), phospho-p42/p44 (1:500, polyclonal Ig; Cell Technology Beverly, USA), ICAM1 (1:500, Abcam, Cambridge, BUT, USA), HLA-DR (1:500, Abcam, Cambridge, BUT, USA). Antigene expression and distribution thereof within biopsy sample have been visualized by indirect immunofluorescence as previously described. Monoclonal isotype control (IgG1 and IgG2) has been used as control. Samples have been analyzed using Zeiss LSM510 confocal laser scanning unit (Carl Zeiss, Germany).

[2] = tested on: intestinal biopsies from celiac patients; test: Organ culture of celiac duodenal mucosa with gliadin PT digest, immunolocalization of immune activation labels (CD25+, ICAM1, HLA-DR); assay type: cell-based, human
Description: as §1, §2

K562(S) cells [3] = settings: earlier studies (6-9); cited from earlier work
ICAM-1 in T84 cells = test: Western blotting for expression of ICAM-1 in T84 cells; assay type: cell-based, human; settings: 24 hours; for ICAM-1 level in T84 cells: peptide alone, 20 μg/ml, compared to medium only; for ICAM-1 level in T84 cells exposed to p31-43: peptide together with p31-43, 20 μg/ml each
Description: T84 human colonic carcinoma cells have been cultured under 5% CO2 atmosphere at 37° C. in 50% DMEM, (Gibco, supplied by Invitrogen, Carlsbad, Calif., USA) and 50% […] containing 4.5 g/L glucose, 2 mM L-glutamine, 50 U/ml penicillin, […] streptomycin, 1% essential amino acids, 1% HEPES and 10% bovine fetal serum (FBS).
T84 cells have been treated with p31-43 peptide in absence and presence of pRPQ, pDAV, p7mer (at peptide concentration of 20 μg/ml) and culture medium only (like negative control) for 24 hours at 37° C.
For WB analysis, T84 cells have been seeded at a concentration of 1×10^5 cells/ml in 12 well plate and shortly treated before confluence was reached. Treatment has been carried out using 20 μg/ml of medium for each peptide (p31-43, p7mer, pDAV, pRPQ) for 24 hours. In order the protecting activity of pDAV and pRPQ towards toxic effect of p31-43 to be tested, a pre-incubation for 3 hours using these peptides before the exposure to p31-43, has been performed. After incubation, cells have been treated with buffer containing 150 mM NaCl, 0.05% sodium dodecyl sulfate (SDS) and 1% Triton X-100. This mixture then has been centrifuged for 5 minutes at 4° C. Protein concentration has been measured according to […]. SDS-(Polyacryl amide Gel Electrophoresis) has been carried out using 4% and 7.5% gel. […] of protein have been loaded for each gel run. Then the proteins have been transferred on nitrocellulose membrane (Biorad). Membranes have been incubated overnight with mice anti-ICAM-1 monoclonal Abs (Abcam, Cambridge, UK) at 1:250 dilution. Successively, after washings, said membrane have been incubated with secondary antibody (peroxidase HRP:3000; Biorad). Membrane occurring proteins are detected using chemiluminescent detection kit (Biorad), according to producer instructions. Blot intensity of protein bands has been evaluated by Biorad ChemiDoc densitometer.

K562(S) cells [4] = test: K562(S) cell agglutination test; assay type: cell-based, human; settings: for (Δ) O.D. (protecting activity): incubated together with p31-43; for protecting activity towards p31-43 induced agglutination of K562 cells: with p31-43
Description: K562(S) cells, an immature subclone of a cell line from a blastic phase chronic myelogenous leukemia patient, are cultured under 5% CO2 atmosphere at 37° C. in RPMI (Gibco, supplied by Invitrogen, Carlsbad, Calif., USA) containing 4.5 g/L glucose, 2 mM L-glutamine, 50 U/ml penicillin, […] streptomycin, 1% essential amino acids, 1% HEPES and 10% bovine fetal serum (FBS).
K562(S) cells to be used for agglutination test have been collected by centrifugation and washed two times with calcium and magnesium free PBS. Then cells have been resuspended at concentration of 10^8 cells/ml in PBS; […] of cell suspension added to each well of a 96 well plate. The peptide has been added at a concentration of 10 μg/ml. The final total volume has been 100 μl. Cell suspension has been incubated at room temp. for 30 minutes. Agglutination rate has been measured using a 96 well plate reader equipped with stirrer. Turbidity of cellular suspension has been measured at 600 nm (OD600 nm) under continuous stirring at 0 and 30 min times. The difference of T0 and T30 readings has been taken as agglutination rate (CV).

TG2 = test: In situ determination of TG2 activity in duodenal mucosa from celiac patients; assay type: cell-based, human; settings: co-incubation with p31-43, biopsies from celiac subjects
Description: as §1
7 μm diameter sections have been collected on slide, pre-incubated with buffer (965 ml of 100 mmol/L Tris-HCl, pH 7.4, […] of 200 mmol/L CaCl2) for 15 minutes, and then pre-incubated with same buffer added with 10 ml of 10 mmol/L of biotinylated mono-dansylcadaverine (bio-MDC) (Molecular Probes, Leiden, The Netherlands) for 1 hour at room temp. The reaction is stopped using 25 mmol/L of EDTA for 5 minutes, then sections have been fixed in 4% paraformaldeide for 10 minutes. Labelled substrate incorporation has been visualized by incubation with streptavidin-conjugated RPE (1:50; Dako) for 30 minutes. Sections have been visualized fluorescently using Axioxop Zeiss 2 Plus micropurpose (Zeiss, Jena, Germany).

[5] = 10 μg/ml, difference of O.D at 600 nm at 0 and 30 minutes ×100, K562(S) cells
[6] = p31-43 20 μg/ml, peptide 10 μg/ml
[7] = 500 μg/ml gliadin PT digest, 10 μg/ml peptide

Row | Substance | ICAM-1 level in T84 cells (ICAM-1 in T84 cells) | ICAM-1 level in T84 cells exposed to p31-43 (ICAM-1 in T84 cells) | (Δ) O.D. (protecting activity) (K562(S) cells [4]; [5]) | protecting activity towards p31-43 induced agglutination of K562 cells (K562(S) cells [4]) | further results
1 | LDPLIRGILLARPAKL QV (SEQ ID NO: 16) (LDPLIRGILLARPAKLQV; control irrilevant peptide) [TPO control peptide, control irrelevant peptide, reference compound] | – | – | – | – | protecting effect against the activation induced by p31-43 ([1]; duodenal biopsies): lacking of any protecting effect; protecting effect against the activation induced by gliadin ([2]; duodenal biopsies): lacking of any protecting effect
2 | QQPQDAVQPF (SEQ ID NO: 1) (mutated omega-secalin peptide) [pDAV, decapeptide identified earlier in wheat peptic-triptic digest (WO9727217)] | No meaningful increase | ICAM-1 levels similar to cells exposed only to culture medium | −12 ± 1.9 | prevent p31-43 induced agglutination | prevention of agglutination of K562(S) cells by gliadin peptides (K562(S) cells [3]): suitable to prevent the agglutination of K562(S) cells by gliadin peptides
3 | QQPQGGGQPF (SEQ ID NO: 13) (peptide corresponding to SEQ ID NO4 sequence wherein X is three G) [pGGG] | – | – | −7.9 ± 1.4 | displayed a protecting activity | –
4 | QQPQQPF (SEQ ID NO: 3) (toxic gliadin peptide from aa 139 to aa 145 of omega-gliadin sequence having accession number AAT74547) [p7mer, 7mer peptide shared by pDAV and pRPQ, known to be toxic in CD, reference compound] | increases ICAM-1 intracellular levels | does not exert any anti-inflammatory effect | 1.5 ± 1.1 | does not display any protecting effect | ICAM-1 level in T84 cells (ICAM-1 in T84 cells; listed as 7mer): poor increase; ICAM-1 level in T84 cells exposed to p31-43 (ICAM-1 in T84 cells; listed as 7mer): no meaningful decrease; agglutinant activity towards K562 cells (K562(S) cells [4]; peptide alone): displays also agglutinant activity; (Δ) O.D. (agglutinating activity) (K562(S) cells [4]; peptide alone, 10 μg/ml, difference of O.D at 600 nm at 0 and 30 minutes ×100, K562(S) cells): 1.0 ± 0.3
5 | QQPQRPQQPF (SEQ ID NO: 2) (peptide corresponding ro omega-secalin from aa 218 to aa 227 codified by the sequence deposited at NCBI with accession number FJ823438) [pRPQ] | No meaningful increase | ICAM-1 levels similar to cells exposed only to culture medium | −9.8 ± 1.7 | prevent p31-43 induced agglutination | p31-43-induced TG2 activity (TG2): completely inhibited; p31-43-induced TG2 activity (TG2; listed as RPQ peptide): meaningfully prevents; expression increase of Py99 [1, 6]: meaningfully prevents; p42/44 phosphorylation induced by p31-43 [1, 6]: meaningfully prevents; also recorded: prevents the increase; gliadin induced increase of HLA-DR expression in mucosa [2, 7]: meaningfully prevents; also recorded: suitable to control; gliadin induced increase of ICAM1 expression in mucosa [2, 7]: meaningfully prevents; also recorded: suitable to control; gliadin induced increase of T CD25+ cells within lamina propria [2, 7]: suitable to control; mucosa immunity stimulating activity ([2]; peptide alone, duodenal biopsies from both celiac and healthy control subjects, data not shown): lacking in mucosa immunity stimulating activity
6 | QQPQWQPF (SEQ ID NO: 15) (peptide corresponding to SEQ ID NO4 sequence wherein X is W) [pW] | – | – | −9.1 ± 2.3 | – | –
7 | QQPQYYYQPF (SEQ ID NO: 14) (peptide corresponding to SEQ ID No4 sequence wherein X is three Y) [pYYY] | – | – | −7 ± 2.5 | little higher protecting activity than pGGG | –
